Measured values taken from ChEMBL document CHEMBL1149858, “Degradation-promoters of cellular inhibitor of apoptosis protein 1 based on bestatin and actinonin” (Bioorg Med Chem, 2008).
Activity calls are given as the source filed them. No cut-off for these calls is given here.

Tests used:
HT-1080 [1] = experiment: Enhancement of etoposide-induced apoptosis of human HT1080 cells at 10 uM; assay type: functional, cell-based
HT-1080 [2] = experiment: Enhancement of anti-Fas antibody CH11-induced apoptosis of human HT1080 cells at 30 uM after 24 hrs; assay type: functional, cell-based
HT-1080 [3] = experiment: Enhancement of cisplatin-induced apoptosis of human HT1080 cells at 10 uM; assay type: functional, cell-based
HT-1080 [4] = experiment: Enhancement of camptothecin-induced apoptosis of human HT1080 cells at 10 uM; assay type: functional, cell-based
HT-1080 [5] = experiment: Enhancement of actinomycin D-induced apoptosis of human HT1080 cells at 10 uM; assay type: functional, cell-based
[6] = molecular target: Baculoviral IAP repeat-containing protein 2 (Homo sapiens, UniProt Q13490); experiment: Promotion of flag-tagged cIAP1 degradation in human HT1080 cells assessed as decrease in cIAPI production after 3 hrs; assay type: cell-based, HT-1080
Chain of Baculoviral IAP repeat-containing protein 2 (Q13490 whole entry): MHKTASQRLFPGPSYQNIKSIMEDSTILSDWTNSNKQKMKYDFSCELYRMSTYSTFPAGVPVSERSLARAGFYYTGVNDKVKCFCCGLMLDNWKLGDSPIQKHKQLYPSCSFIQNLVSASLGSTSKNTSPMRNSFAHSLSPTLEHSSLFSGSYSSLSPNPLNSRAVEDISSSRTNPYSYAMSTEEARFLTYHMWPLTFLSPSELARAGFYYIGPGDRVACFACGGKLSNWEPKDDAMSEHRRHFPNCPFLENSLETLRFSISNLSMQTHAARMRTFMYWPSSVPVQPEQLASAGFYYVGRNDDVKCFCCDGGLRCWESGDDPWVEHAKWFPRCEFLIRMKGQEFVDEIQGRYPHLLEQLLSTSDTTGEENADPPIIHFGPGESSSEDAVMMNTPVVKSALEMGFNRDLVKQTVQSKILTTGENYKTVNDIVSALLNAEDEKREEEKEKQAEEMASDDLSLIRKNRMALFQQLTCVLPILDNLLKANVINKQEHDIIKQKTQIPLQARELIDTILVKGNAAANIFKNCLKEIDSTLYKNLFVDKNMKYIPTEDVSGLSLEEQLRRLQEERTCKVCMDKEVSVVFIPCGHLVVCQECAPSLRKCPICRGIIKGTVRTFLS

Row | IC50 [6] | Activity ([6]; HT-1080) | SMILES | Activity (HT-1080 [1]) | Activity (HT-1080 [2]) | Activity (HT-1080 [3]) | Activity (HT-1080 [4]) | Activity (HT-1080 [5])
1 | – | – | COC(=O)[C@H](CC(C)C)NC(=O)[C@@H](O)[C@H](N)Cc1ccccc1 | Active | Active | Active | Active | Active
2 | > 20 µM | – | CCCCC[C@H](CC(=O)NO)C(=O)N[C@H](C(=O)OC)C(C)(C)C | – | – | – | – | –
3 | – | inactive | COC(=O)[C@H](CC(C)C)NC(=O)[C@H](N)CC(=O)NO | – | – | – | – | –
4 | – | – | CCCCC[C@H](CC(=O)NO)C(=O)N[C@@H](C)C(=O)OC | Active | – | Active | Active | Active
